Measurements taken from article PMC1399460, “Synthesis and glycosidase inhibitory activity of new hexa-substituted C8-glycomimetics” (Beilstein Journal of Organic Chemistry, 2005).

What was measured:
Test in all cases: glycosidase inhibition assay
Details in all cases: read-out: % inhibition at 1 mM
[1] = molecular target: T1, α-D-glucosidase from Bacillus stearothermophilus (Geobacillus stearothermophilus, UniProt A0ACH1E9U3)
T1 construct: gene QSJ10_02665
T1 sequence (A0ACH1E9U3 1-555): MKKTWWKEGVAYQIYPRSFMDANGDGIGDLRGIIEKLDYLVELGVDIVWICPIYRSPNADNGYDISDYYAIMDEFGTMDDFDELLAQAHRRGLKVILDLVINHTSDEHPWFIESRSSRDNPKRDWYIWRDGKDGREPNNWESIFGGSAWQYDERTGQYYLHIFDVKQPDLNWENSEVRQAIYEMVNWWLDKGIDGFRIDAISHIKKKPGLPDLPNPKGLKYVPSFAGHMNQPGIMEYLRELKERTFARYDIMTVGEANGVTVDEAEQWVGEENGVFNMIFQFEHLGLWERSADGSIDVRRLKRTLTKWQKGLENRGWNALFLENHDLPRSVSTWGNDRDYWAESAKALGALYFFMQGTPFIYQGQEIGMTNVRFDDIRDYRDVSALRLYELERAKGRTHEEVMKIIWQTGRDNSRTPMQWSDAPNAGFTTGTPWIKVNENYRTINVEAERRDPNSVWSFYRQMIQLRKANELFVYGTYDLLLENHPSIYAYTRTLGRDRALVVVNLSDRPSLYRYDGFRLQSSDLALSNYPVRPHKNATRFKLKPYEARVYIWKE
Text: glycosidase inhibition assay on α-D-glucosidase from Bacillus stearothermophilus

[2] = molecular target: T2, α-L-fucosidase from bovine kidney (Bos taurus, UniProt Q2KIM0); assay type: biochemical
T2 construct: gene FUCA1; commercial native enzyme from kidney
T2 sequence (Q2KIM0 23-468): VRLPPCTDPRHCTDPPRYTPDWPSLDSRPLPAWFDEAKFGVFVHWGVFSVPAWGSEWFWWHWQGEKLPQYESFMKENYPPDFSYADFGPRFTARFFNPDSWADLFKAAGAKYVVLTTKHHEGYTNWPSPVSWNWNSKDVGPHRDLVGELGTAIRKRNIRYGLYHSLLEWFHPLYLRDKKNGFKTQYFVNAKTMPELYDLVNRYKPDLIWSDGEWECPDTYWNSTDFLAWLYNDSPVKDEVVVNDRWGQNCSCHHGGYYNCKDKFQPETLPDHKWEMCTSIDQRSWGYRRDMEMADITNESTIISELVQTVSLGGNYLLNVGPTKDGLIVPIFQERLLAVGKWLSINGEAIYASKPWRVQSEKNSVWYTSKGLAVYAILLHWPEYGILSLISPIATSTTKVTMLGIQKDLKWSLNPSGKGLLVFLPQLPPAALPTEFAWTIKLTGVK
Text: glycosidase inhibition assay on α-L-fucosidase from bovine kidney

[3] = molecular target: T3, α-D-mannosidase from Jack beans (Canavalia ensiformis, UniProt C0HJB3); assay type: biochemical
T3 construct: commercial native enzyme preparation
T3 sequence (C0HJB3 1-562): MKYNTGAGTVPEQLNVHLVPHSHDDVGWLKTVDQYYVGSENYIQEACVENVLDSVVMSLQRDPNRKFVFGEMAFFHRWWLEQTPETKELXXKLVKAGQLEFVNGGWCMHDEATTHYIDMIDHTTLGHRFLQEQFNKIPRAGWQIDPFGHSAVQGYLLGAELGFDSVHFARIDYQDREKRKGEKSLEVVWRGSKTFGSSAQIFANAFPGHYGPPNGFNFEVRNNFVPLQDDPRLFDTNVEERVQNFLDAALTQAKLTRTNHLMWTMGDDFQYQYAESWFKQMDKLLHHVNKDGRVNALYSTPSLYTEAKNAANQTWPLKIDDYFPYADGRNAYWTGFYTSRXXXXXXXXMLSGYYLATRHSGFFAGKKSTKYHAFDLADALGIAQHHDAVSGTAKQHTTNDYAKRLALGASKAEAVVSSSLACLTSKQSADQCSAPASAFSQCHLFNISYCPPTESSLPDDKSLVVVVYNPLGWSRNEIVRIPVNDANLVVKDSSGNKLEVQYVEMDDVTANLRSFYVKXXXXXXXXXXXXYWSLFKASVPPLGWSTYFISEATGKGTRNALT
T3 sequence (C0HJB3 563-981): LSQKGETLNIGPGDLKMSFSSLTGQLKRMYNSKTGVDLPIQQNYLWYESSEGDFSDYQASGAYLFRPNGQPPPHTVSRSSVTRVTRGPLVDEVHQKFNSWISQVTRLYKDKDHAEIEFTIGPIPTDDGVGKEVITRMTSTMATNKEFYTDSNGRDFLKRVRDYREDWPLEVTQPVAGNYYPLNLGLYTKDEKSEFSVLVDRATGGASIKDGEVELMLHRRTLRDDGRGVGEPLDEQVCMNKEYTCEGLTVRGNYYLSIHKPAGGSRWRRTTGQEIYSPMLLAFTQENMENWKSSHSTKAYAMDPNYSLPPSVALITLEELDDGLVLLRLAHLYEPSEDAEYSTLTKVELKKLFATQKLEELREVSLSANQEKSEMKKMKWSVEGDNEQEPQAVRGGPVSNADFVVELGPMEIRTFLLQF
Text: glycosidase inhibition assay on α-D-mannosidase from Jack beans

[4] = molecular target: T4, amyloglucosidase from Aspergillus niger (Aspergillus niger, UniProt P69328); assay type: biochemical
T4 construct: gene GLAA; commercial native enzyme preparation
T4 sequence (P69328 25-640): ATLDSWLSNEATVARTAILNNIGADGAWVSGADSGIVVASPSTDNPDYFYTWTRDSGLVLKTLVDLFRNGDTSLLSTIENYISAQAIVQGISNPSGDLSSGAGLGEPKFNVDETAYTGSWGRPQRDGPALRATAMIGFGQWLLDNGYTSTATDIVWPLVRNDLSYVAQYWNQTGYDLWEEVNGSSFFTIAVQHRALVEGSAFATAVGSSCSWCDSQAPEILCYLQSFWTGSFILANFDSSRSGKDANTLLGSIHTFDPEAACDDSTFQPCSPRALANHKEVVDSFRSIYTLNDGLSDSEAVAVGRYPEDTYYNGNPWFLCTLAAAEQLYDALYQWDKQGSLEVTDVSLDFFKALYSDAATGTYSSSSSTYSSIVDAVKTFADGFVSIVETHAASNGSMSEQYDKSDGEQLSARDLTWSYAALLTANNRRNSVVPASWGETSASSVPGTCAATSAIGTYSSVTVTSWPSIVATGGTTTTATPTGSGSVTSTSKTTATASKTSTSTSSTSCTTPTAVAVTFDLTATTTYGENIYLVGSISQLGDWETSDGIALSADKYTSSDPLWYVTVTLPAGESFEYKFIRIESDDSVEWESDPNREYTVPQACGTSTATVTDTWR
Text: glycosidase inhibition assay on amyloglucosidase from Aspergillus niger

| Structure (SMILES) | inhibition at 1000 µM [1] | inhibition at 1000 µM [2] | inhibition at 1000 µM [3] | inhibition at 1000 µM [4] |
| --- | --- | --- | --- | --- |
| O[C@H]1[C@H](O)[C@@H](O)C[C@H](O)[C@H](O)C[C@@H]1O [compound 5, C8 hexa-substituted carbasugar 5] | 9% | 14% |  |  |
| O[C@H]1[C@H](O)[C@H](O)C[C@H](O)[C@H](O)C[C@H]1O [compound 6, C8 hexa-substituted carbasugar 6] |  | 13% |  |  |
| N[C@H]1C[C@H](O)[C@@H](O)[C@H](O)[C@@H](O)C[C@@H]1O [compound 15, aminocyclitol 15] |  |  | 16% | 28% |
| N[C@@H]1C[C@@H](O)[C@@H](O)[C@H](O)[C@H](O)C[C@H]1O [compound 16, aminocyclitol 16] |  |  | 8% |  |
| OCC(CO)N[C@H]1C[C@H](O)[C@@H](O)[C@H](O)[C@@H](O)C[C@@H]1O [compound 19, C8-voglibose mimetic 19] |  |  | 10% | 27% |
| OCC(CO)N[C@@H]1C[C@@H](O)[C@@H](O)[C@H](O)[C@H](O)C[C@H]1O [compound 20, aminocyclitol 20] | 6% |  | 8% | 29% |
